Reference: ChEMBL document CHEMBL1157035, “Synthesis and biological evaluation of water-soluble organogermanium” (Eur J Med Chem, 2010)
The source made the active and inactive calls. The calls are words filed in the database; no cut-off is given here.

What was measured:
Assay type in all cases: functional, organism-based
Mus musculus [1] = assay: Immunoregulatory activity in ICR mouse assessed as increase in serum IFN-gamma level at 300 mg/kg, po after 24 hrs by ELISA; design: dose 300 mg/kg
Mus musculus [2] = assay: Immunoregulatory activity in ICR mouse assessed as increase in serum IFN-gamma level at 100 mg/kg, po after 12 hrs by ELISA; design: dose 100 mg/kg
Mus musculus [3] = assay: Immunoregulatory activity in po dosed ICR mouse assessed as increase in serum IFN-gamma level after 24 hrs by ELISA
Mus musculus [4] = assay: Immunoregulatory activity in ICR mouse assessed as increase in serum IFN-gamma level at 100 mg/kg, po after 12 to 24 hrs by ELISA; design: dose 100 mg/kg
Mus musculus [5] = assay: Immunoregulatory activity in ICR mouse assessed as increase in serum IFN-gamma level at 100 mg/kg, po after 24 hrs by ELISA; design: dose 100 mg/kg

“6-O-[3-(trimethylgermyI)propyl]-beta-D-glucopyranoside” was tested, and the Activity (Mus musculus [1]) was 600 pg/mL, the Activity (Mus musculus [2]) was “inactive” and the Activity (Mus musculus [3]) was “Dose-dependent effect”. For the same substance, the Activity (Mus musculus [4]) was “Active”.
In the case of GERMANIUM SESQUIOXIDE, the Activity (Mus musculus [2]) is reported as “inactive”, the Activity (Mus musculus [4]) is reported as “Active” and the Activity (Mus musculus [5]) is reported as 320 pg/mL.
